pIC50: −log10 of the molar value. Counter-ions that a name gives are not always drawn.

The target in the test is T1, TLR7/NFKb HEK cells (Homo sapiens, UniProt Q9NYK1).
T1 construct: expressed in transfected cells; host or cells: HEK cells (TLR7/NFKb reporter line)
T1 sequence (Q9NYK1 27-1049): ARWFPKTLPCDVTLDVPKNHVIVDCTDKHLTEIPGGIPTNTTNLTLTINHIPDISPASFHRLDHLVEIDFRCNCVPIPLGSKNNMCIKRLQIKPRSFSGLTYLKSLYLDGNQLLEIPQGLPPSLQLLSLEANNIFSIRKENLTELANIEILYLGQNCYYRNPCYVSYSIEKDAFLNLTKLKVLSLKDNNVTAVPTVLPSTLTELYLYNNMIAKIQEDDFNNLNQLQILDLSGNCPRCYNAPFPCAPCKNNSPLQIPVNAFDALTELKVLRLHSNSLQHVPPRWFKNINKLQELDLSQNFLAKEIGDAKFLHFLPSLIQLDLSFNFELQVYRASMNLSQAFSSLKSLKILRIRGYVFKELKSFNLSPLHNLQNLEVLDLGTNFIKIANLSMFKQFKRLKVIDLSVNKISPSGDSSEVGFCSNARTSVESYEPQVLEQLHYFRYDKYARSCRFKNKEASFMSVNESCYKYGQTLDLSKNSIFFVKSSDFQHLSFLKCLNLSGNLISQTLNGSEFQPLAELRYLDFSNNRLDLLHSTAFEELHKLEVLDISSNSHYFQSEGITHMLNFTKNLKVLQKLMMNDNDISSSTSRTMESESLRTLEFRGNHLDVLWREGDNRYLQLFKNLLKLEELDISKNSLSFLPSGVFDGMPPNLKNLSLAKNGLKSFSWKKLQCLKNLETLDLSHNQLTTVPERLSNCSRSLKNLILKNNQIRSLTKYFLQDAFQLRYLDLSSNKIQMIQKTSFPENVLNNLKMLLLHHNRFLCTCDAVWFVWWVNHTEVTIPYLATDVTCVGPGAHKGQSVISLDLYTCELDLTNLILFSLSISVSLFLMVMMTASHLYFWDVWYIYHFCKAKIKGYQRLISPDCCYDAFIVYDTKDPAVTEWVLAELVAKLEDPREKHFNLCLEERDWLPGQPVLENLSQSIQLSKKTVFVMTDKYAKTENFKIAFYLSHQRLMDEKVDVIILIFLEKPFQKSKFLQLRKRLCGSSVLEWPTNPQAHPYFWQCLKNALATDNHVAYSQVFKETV
Description: HEK Cell Assay (TLR7/NFKb reporter, Steady-Glo luciferase readout). The class given is cell-based. The note with it: 30 min compound preincubation, then R*48 agonist for 5 hours, read-out: Potency. In outline:
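Steady-Glo luminescence after 5 h stimulation with R*48 agonist, following 30 min compound preincubation. Assay run in HEK cells carrying a TLR7/NFKb luciferase reporter, plated at 5000 cells/well and grown 24 h at 37° C (10% CO2) before treatment.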
As for `Cc1cnc2c(N3C[C@@H](C)C[C@@H](N)C3)ccc(C#N)c2n1` [Compound 525, 8-((3R,5S)-3-Amino-5-methyl-piperidin-1-yl)-3-methyl-quinoxaline-5-carbonitrile], the pIC50 was above 6.00. In the case of `C[C@H]1C[C@@H](N)CN(c2ccc(C(N)=O)c3ncccc23)C1` [Compound 180, 5-[(3R,5S)-3-amino-5-methylpiperidin-1-yl]quinoline-8-carboxamide], the pIC50 is above 6.00. Then `C[C@H]1C[C@@H](NC(=O)[C@H](C)N)CN(c2ccc(C#N)c3nccnc23)C1` [Compound 25, (S)-2-amino-N-((3R,5S)-1-(8-cyanoquinoxalin-5-yl)-5-methylpiperidin-3-yl)propanamide], with above 6.00; and `C[C@H]1C[C@@H](NC(=O)CC2CCN(C)CC2)CN(c2ccc(C(F)F)c3nccnc23)C1` [Compound 328, N-[(3R,5S)-1-[8-(difluoromethyl)quinoxalin-5-yl]-5-methylpiperidin-3-yl]-2-(1-methylpiperidin-4-yl)acetamide], with above 6.00; and `C[C@H]1C[C@@H](NC2COC2)CN(c2ccc(C#N)c3nccnc23)C1` [Compound 137, 8-[(3S,5R)-3-methyl-5-[(oxetan-3-yl)amino]piperidin-1-yl]quinoxaline-5-carbonitrile], with above 6.00. Then `CCN(CC)CCNCC1CCN(c2ccnc3ccc(F)cc23)CC1` [Compound 375, N,N-Diethyl-N′-[1-(6-fluoro-quinolin-4-yl)-piperidin-4-ylmethyl]-ethane-1,2-diamine], with 5.00 to 6.00.

Consider `CC(=O)N[C@@H]1C[C@H](C)CN(c2ccc(C(F)(F)F)c3ncccc23)C1` [Compound 517, N-[(3R,5S)-5-Methyl-1-(8-trifluoromethyl-quinolin-5-yl)-piperidin-3-yl]-acetamide], for which the pIC50 is above 6.00. On to `CC(C)(C)OCC(=O)NCC1CCN(c2ccc(C#N)c3ncccc23)CC1` [Compound 412, 2-tert-Butoxy-N-[1-(8-cyano-quinolin-5-yl)-piperidin-4-ylmethyl]-acetamide], for which the pIC50 was below 5.00. Under `COCCN[C@@H]1C[C@H](C)CN(c2ccnc3nccnc23)C1` [Compound 18, (3R,5S)—N-(2-methoxyethyl)-5-methyl-1-(pyrido[2,3-b]pyrazin-8-yl)piperidin-3-amine] stands below 5.00; under `c1ccc2c(N3CCC(CNCCN4CCOCC4)CC3)ccnc2c1` [Compound 7, 2-morpholino-N-((1-(quinolin-4-yl)piperidin-4-yl)methyl)ethanamine], below 5.00; under `CN1CCCC1CNC(=O)C1CCN(c2ccc(C#N)c3ncccc23)CC1` (stereo not shown) [Compound 433, 1-(8-Cyano-quinolin-5-yl)-piperidine-4-carboxylic Acid (1-methyl-pyrrolidin-2-ylmethyl)-amide], above 6.00. Then `C[C@H]1C[C@@H](NC(=O)CC2CCN(C)C2)CN(c2ccc(C#N)c3nccnc23)C1` (stereo partly drawn) [Compound 269, N-[(3R,5S)-1-(8-cyanoquinoxalin-5-yl)-5-methylpiperidin-3-yl]-2-(1-methylpyrrolidin-3-yl)acetamide], with above 6.00; and `CC1CC(C(=O)NC2CCCN(C)C2)CN(c2ccc(C#N)c3nccnc23)C1` (stereo not drawn) [Compound 543, cis-1-(8-cyanoquinoxalin-5-yl)-5-methyl-N-(1-methyl-3-piperidyl) piperidine-3-carboxamide], with above 6.00.

On to `O=C(CN1CCC1)NCC1CCN(c2ccnc3nccnc23)CC1` [Compound 402, 2-Azetidin-1-yl-N-(1-pyrido[2,3-b]pyrazin-8-yl-piperidin-4-ylmethyl)-acetamide], for which the pIC50 was 5.00 to 6.00. On to `CC(C(=O)N[C@@H]1C[C@H](C)CN(c2ccc(C#N)c3nccnc23)C1)N1CC(F)(F)C1` (stereo partly drawn) [Compound 273, N-[(3R,5S)-1-(8-cyanoquinoxalin-5-yl)-5-methylpiperidin-3-yl]-2-(3,3-difluoroazetidin-1-yl)propanamide], for which the pIC50 is 5.00 to 6.00.

Consider `CCN(CC)CCNCC1CCN(c2ccnc3ccc(C(F)(F)F)cc23)CC1` [Compound 377, N,N-Diethyl-N′-[1-(6-trifluoromethyl-quinolin-4-yl)-piperidin-4-ylmethyl]-ethane-1,2-diamine], for which the pIC50 was 5.00 to 6.00. Under `N#Cc1ccc(N2CCC(CNC(=O)CN3CCCCC3)CC2)c2cccnc12` [Compound 409, N-[1-(8-Cyano-quinolin-5-yl)-piperidin-4-ylmethyl]-2-piperidin-1-yl-acetamide] stands above 6.00; under `N#Cc1ccc(N2CCC(C(=O)NC3CCN(CC4CC4)C3)CC2)c2cccnc12` (stereo not shown) [Compound 434, 1-(8-Cyano-quinolin-5-yl)-piperidine-4-carboxylic Acid (1-cyclopropylmethyl-pyrrolidin-3-yl)-amide], above 6.00.

As to `C[C@H]1C[C@@H](NC(=O)CN2CCOCC2)CN(c2ccc(C(F)(F)F)c3nccnc23)C1` [Compound 249, N-[(3R,5S)-5-methyl-1-[8-(trifluoromethyl)quinoxalin-5-yl]piperidin-3-yl]-2-(morpholin-4-yl)acetamide], the pIC50 is above 6.00. Then `C[C@H]1C[C@@H](NC(=O)C2CCN(C)C2)CN(c2ccc(C(F)(F)F)c3nccnc23)C1` (stereo partly drawn) [Compound 258, 1-methyl-N-[(3R,5S)-5-methyl-1-[8-(trifluoromethyl)quinoxalin-5-yl]piperidin-3-yl]pyrrolidine-3-carboxamide], with above 6.00; and `Cc1cc(F)c(N2C[C@@H](C)C[C@@H](N)C2)c2cccnc12` [Compound 489, (3R,5S)-1-(6-Fluoro-8-methyl-quinolin-5-yl)-5-methyl-piperidin-3-ylamine], with above 6.00. Regarding `N#Cc1ccc(N2C[C@H](N)C[C@H](F)C2)c2nccnc12` [Compound 499, 8-((3R,5S)-3-Amino-5-fluoro-piperidin-1-yl)-quinoxaline-5-carbonitrile hydrochloride], the pIC50 is 5.00 to 6.00.

With `C[C@H]1C[C@@H](NC(=O)CC2CNC2)CN(c2ccc(C#N)c3nccnc23)C1` [Compound 274, 2-(azetidin-3-yl)-N-[(3R,5S)-1-(8-cyanoquinoxalin-5-yl)-5-methylpiperidin-3-yl]acetamide], the pIC50 is above 6.00. With `C[C@H]1C[C@@H](NC(=O)C2(N)CC2)CN(c2ccnc3nccnc23)C1` [Compound 30, 1-amino-N-((3R,5S)-5-methyl-1-(pyrido[2,3-b]pyrazin-8-yl)piperidin-3-yl)cyclopropanecarboxamide hydrochloride], the pIC50 is below 5.00. Then `COCCN[C@@H]1C[C@H](C)CN(c2ccc(C(F)F)c3ncccc23)C1` [Compound 206, (3R,5S)-1-[8-(difluoromethyl)quinolin-5-yl]-N-(2-methoxyethyl)-5-methylpiperidin-3-amine], with above 6.00; and `C[C@H]1C[C@@H](NC(=O)CO)CN(c2ccc(C(F)(F)F)c3nccnc23)C1` [Compound 250, 2-hydroxy-N-[(3R,5S)-5-methyl-1-[8-(trifluoromethyl)quinoxalin-5-yl]piperidin-3-yl]acetamide], with above 6.00; and `COc1ccc(N2C[C@@H](C)C[C@@H](NC(=O)CC(C)(C)C)C2)c2nccnc12` [Compound 202, N-[(3R,5S)-1-(8-methoxyquinoxalin-5-yl)-5-methylpiperidin-3-yl]-3,3-dimethylbutanamide], with 5.00 to 6.00. Under `CCN1CCC(NC(=O)C2CC(C)CN(c3ccc(C#N)c4nccnc34)C2)CC1` (stereo not shown) [Compound 540, 1-(8-Cyano-quinoxalin-5-yl)-5-methyl-piperidine-3-carboxylic acid (1-ethyl-piperidin-4-yl)-amide] stands above 6.00; under `C[C@@H]1C[C@H](C(=O)NCCN2CCN(C)CC2)CN(c2ccc(C#N)c3nccnc23)C1` (relative stereo) [Compound 537, cis-1-(8-Cyano-quinoxalin-5-yl)-5-methyl-piperidine-3-carboxylic acid [2-(4-methyl-piperazin-1-yl)-ethyl]-amide], above 6.00; under `C[C@H]1C[C@@H](NC(=O)Cn2cccn2)CN(c2ccnc3nccnc23)C1` [Compound 170, N-[(3R,5S)-5-methyl-1-[pyrido[2,3-b]pyrazin-8-yl]piperidin-3-yl]-2-(1H-pyrazol-1-yl)acetamidw], below 5.00. Then `C[C@@H]1CN(c2ccnc3nccnc23)C[C@H](C(=O)NC2CCN(C)CC2)O1` [Compound 65, (2R,6R)-6-methyl-N-(1-methylpiperidin-4-yl)-4-(pyrido[2,3-b]pyrazin-8-yl)morpholine-2-carboxamide], with above 6.00.

Source of the values: patent US10947213B1 (Merck Patent GmbH, priority 2015, dated 2021).
